Assays:
Assay type in all cases: cell-based, mouse
[1] = test system: neural stem cells from the E9.5 forebrain; assay: Sphere colony formation from E9.5 forebrain neural stem cells
Procedure: Pregnant CD1 mice (Charles River, Quebec) of gestational age (9.5 (E9.5) or E11.5 (see below) were killed via cervical dislocation and embryos were removed as previously described (Chiasson et al., 1999; Tropepe et al., 1999). Dissected germinal zone from the E9.5 telencephalon was transferred to serum-free media and mechanically dissociated into a cell suspension with a fire-polished Pasteur pipette. Cell viability was assessed using trypan blue. Cells were plated at 10 cells/μl in 24-well (0.5 ml/well) uncoated plates (Nunclon) in serum-free media containing either FGF2 (10 ng/ml)+heparin (2 (g/ml) or FGF2+heparin+LIF (1000 U/ml). Self-renewal of neural stem cells that generated primary sphere colonies (selecting mainly floating colonies after 7 days in vitro) were routinely subcloned by mechanically dissociating a single colony in 0.2 ml of serum-free media, in identical growth factor conditions as the primary culture, and plated in uncoated 96-well (0.2 ml/well) plates (Nunclon). The number of new secondary colonies was quantified after a further 6–7 days in vitro. Neural stem cell colonies from the adult forebrain subependyma were isolated as previously described (Chiasson et al., 1999) and cultured as above.

[2] = test system: ES-derived neural sphere colony cells; assay: Subcloning of single ES-derived sphere colonies (secondary colony formation, self-renewal); conditions: subcloned single primary colonies; factor alone
Procedure: Self-renewal of primary colony-formin) ES cells was assessed as previously described (Tropepe et al., 1999). Single sphere colonies were isolated, mechanically dissociated into a single cell suspension in 0.2 ml of serum-free media containing various combinations of LIF (1000 U/ml), […] (10 ng/ml), heparin (2 (g/ml), EGF (20 ng/ml; Upstate Biotech) or B27 supplement (1X) and cultured in 96-well (Nunclon) plates. Secondary sphere colonies were quantified after 7–10 days. A similar procedure was used for repeated passaging experiments. Cell viability after a 7-day culture period (sphere colony assay) or after 4–24 hours (short-term ES differentiation assay) was determined using trypan blue exclusion (1:2 dilution of 0.4% trypan blue; Gibco).

ES cells = assay: Primary neural sphere colony formation from ES cells in serum-free low-density culture, 7 days; conditions: for primary colony formation, factor alone: ES cells at relatively low cell densities, serum-free, 7 days in vitro
Procedure: For passaging ES cells, cultures were disaggregated with 0.05% trypsin dissolved in Tris-saline/EDTA for 5–10 minutes, mechanically dissociated, centrifuged and resuspended in culture medium.
Passaged ES cells were washed (2 times), centrifuged and resuspended in chemically defined serum-free media (Reynolds et al., 1992; Reynolds & Weiss, 1996) composed of a 1:1 mixture of Dulbecco's modified Eagle's medium (DMEM GIBCO) and F-12 nutrient (GIBCO) including 0.6% glucose (Sigma), 2 mM glutamine (GIBCO), 3 mM sodium bicarbonate (Sigma), and 5 mM HEPFS buffer (Sigma). A defined hormone and salt mixture (Sigma) that included insulin (25 (g/ml), transferrin (100 (g/ml), progestrone (20 nM), putrescine (60 (M), and selenium chloride (30 nM) was used instead of serum. ES cells were plated at various cell densities in 24-well culture plates (Nunclon) in the presence of either LIF (1000 U/ml), LIF+FGF2 (10 ng/ml; Upstate Biotech or Sigma) and 2 (g/ml heparin (Sigma), or in the absence of any exogenous growth factors. For short term (4–24 hours) neural differentiation, ES cells were plated in identical culture conditions in 24-well culture plates (Nunclon) that were precoated with poly-L-ornithine (15 μg/ml, Gibco).
Limiting dilution analysis was performed as previously described (Bellows and Aubin, 1989; Tropepe et al., 1999). ES cells were plated in 24-well plates containing LIF (1000 U/ml). Cell numbers were adjusted to give a starting concentration of 5000 cells/ml from which serial dilutions were made. Final cell dilutions ranged from 1000 cells per well to 1 cell per well in 0.5 ml aliquots. Cultures were left undisturbed for 7 days after which time the fraction of wells not containing sphere colonies for each cell plating density was calculated and those points were plotted against the number of cells plated per well. The number of cells required to form one sphere colony, which reflected the proportion of neural stem cells in the entire population, was then determined from the point at which the regression line crossed the 0.37 level (37%). […]

Substance	E9.5 neural stem cell proliferation, LIF alone ([1]; LIF alone)	numbers of neural stem cells forming sphere colonies, with FGF2 ([1]; LIF in the presence of FGF2, compared to FGF2 alone)	secondary neural stem cell colony formation [2]	primary colony formation, factor alone (ES cells)	estimated frequency of sphere colony forming cells (ES cells; limiting dilution assay in the presence of LIF (1000 U/ml))
LIF: leukemia inhibitory factor, cytokine added at 1000 U/ml	not sufficient for E9.5 neural stem cell proliferation	can enhance the numbers of FGF-responsive neural stem cells	not sufficient for secondary colony formation	floating sphere-like colonies were generated	~0.2%
EGF: growth factor, 20 ng/ml; Upstate Biotech (NSDSECPLSHDGYCLHDGVCMYIEALDKYACNCVVGYIGERCQYRDLKWWELR; Epidermal growth factor; UniProt P01133 971-1023, looked up)	–	–	not observed	no cell colonies were generated	–

Source: patent US7211434B2, “Primitive neural stem cells and method for differentiation of stem cells to neural cells” (priority 2000, dated 2007)
